Assay results reported in patent US5476966A, “Method for depletion of glutathione” (Cornell Research Foundation, Inc., priority 1995, dated 1995).

Legend:
glutathione [1] = experiment: Tissue glutathione after oral administration of sulfoximines (Table 4); type: in vivo, mouse; details: 2 mmol/Kg oral
Method: (§1) Male mice (Swiss Webster) were fasted overnight (about 16 hr.) L-buthionine-SR-sulfoximine (BSO, S-n-butyl homocysteine-SR-sulfoximine), L-S-cyclohexylmethyl homocysteine-SR-sulfoximine (CHMSO); L-S-2-ethylbutylhomocysteine-SR-sulfoximine (2 EtBSO, L-S-2-ethylbutyl homocysteine-SR-sulfoximine, or saline (0.9% NaCl) were administered to mice at 2 mmol/Kg by intubation (100 mM; pH about 1 with HCl (200 mM). At the times indicated, plasma and tissues were obtained and assayed for glutathione (GSH+1/2 GSSG) as described by Anderson, Methods in Enzymology, 1985, 113:548-555. (See Table 4 and 5.)

[2] = system: human ovarian tumor cells; details: grown in nude mice; cited from earlier work
glutathione [3] = experiment: Tissue glutathione after oral administration of sulfoximines (Table 5); type: in vivo, mouse; details: for % Decrease in glutathione / Glutathione level: 2 mmol/Kg oral
Method: as §1

CCCCS(=N)(=O)CCC(N)C(=O)O [BSO, L-S-butyl homocysteine-SR-sulfoximine]
% Decrease in glutathione (glutathione [1]; brain, 2 hr): 24%
Glutathione level (glutathione [1]; brain, 2 hr): 1.86 µmol/g
% Decrease in glutathione (glutathione [1]; brain, 12 hr): 18%
Glutathione level (glutathione [1]; brain, 12 hr): 1.73 µmol/g
% Decrease in glutathione (glutathione [1]; kidney, 2 hr): 80%
Glutathione level (glutathione [1]; kidney, 2 hr): 0.69 µmol/g
% Decrease in glutathione (glutathione [1]; kidney, 12 hr): 87%
Glutathione level (glutathione [1]; kidney, 12 hr): 0.45 µmol/g
% Decrease in glutathione (glutathione [1]; liver, 2 hr): 75%
Glutathione level (glutathione [1]; liver, 2 hr): 1.23 µmol/g
% Decrease in glutathione (glutathione [1]; liver, 12 hr): 78%
Glutathione level (glutathione [1]; liver, 12 hr): 1.10 µmol/g
% Decrease in glutathione (glutathione [1]; plasma, 2 hr): 59%
Glutathione level (glutathione [1]; plasma, 2 hr): 9.7 µM
% Decrease in glutathione (glutathione [1]; plasma, 12 hr): 69%
Glutathione level (glutathione [1]; plasma, 12 hr): 7.2 µM
reversal of resistance [2]: reversal of resistance
decrease in brain glutathione levels (glutathione [3]; 2 mmol/kg, 12 hours, experimental error about 5%): ~20%
decrease in glutathione levels (cardio-toxicity) (glutathione [3]; 2 hours, 2 mmol/kg, mice): 22%
% Decrease in glutathione (glutathione [3]; brain, 2 hr): 0%
Glutathione level (glutathione [3]; brain, 2 hr): 2.17 µmol/g
% Decrease in glutathione (glutathione [3]; brain, 4 hr): 10%
Glutathione level (glutathione [3]; brain, 4 hr): 1.95 µmol/g
% Decrease in glutathione (glutathione [3]; brain, 8 hr): 12%
Glutathione level (glutathione [3]; brain, 8 hr): 2.04 µmol/g
% Decrease in glutathione (glutathione [3]; brain, 12 hr): 18%
Glutathione level (glutathione [3]; brain, 12 hr): 1.64 µmol/g
% Decrease in glutathione (glutathione [3]; heart, 2 hr): 22%
Glutathione level (glutathione [3]; heart, 2 hr): 0.86 µmol/g
% Decrease in glutathione (glutathione [3]; heart, 4 hr): 17%
Glutathione level (glutathione [3]; heart, 4 hr): 0.91 µmol/g
% Decrease in glutathione (glutathione [3]; heart, 8 hr): 36%
Glutathione level (glutathione [3]; heart, 8 hr): 0.65 µmol/g
% Decrease in glutathione (glutathione [3]; heart, 12 hr): 49%
Glutathione level (glutathione [3]; heart, 12 hr): 0.58 µmol/g
% Decrease in glutathione (glutathione [3]; kidney, 2 hr): 71%
Glutathione level (glutathione [3]; kidney, 2 hr): 0.81 µmol/g
% Decrease in glutathione (glutathione [3]; kidney, 4 hr): 80%
Glutathione level (glutathione [3]; kidney, 4 hr): 0.57 µmol/g
% Decrease in glutathione (glutathione [3]; kidney, 8 hr): 86%
Glutathione level (glutathione [3]; kidney, 8 hr): 0.44 µmol/g
% Decrease in glutathione (glutathione [3]; kidney, 12 hr): 91%
Glutathione level (glutathione [3]; kidney, 12 hr): 0.30 µmol/g
% Decrease in glutathione (glutathione [3]; liver, 2 hr): 71%
Glutathione level (glutathione [3]; liver, 2 hr): 1.50 µmol/g
% Decrease in glutathione (glutathione [3]; liver, 4 hr): 87%
Glutathione level (glutathione [3]; liver, 4 hr): 0.70 µmol/g
% Decrease in glutathione (glutathione [3]; liver, 8 hr): 89%
Glutathione level (glutathione [3]; liver, 8 hr): 0.60 µmol/g
% Decrease in glutathione (glutathione [3]; liver, 12 hr): 85%
Glutathione level (glutathione [3]; liver, 12 hr): 0.73 µmol/g
% Decrease in glutathione (glutathione [3]; plasma, 2 hr): 56%
Glutathione level (glutathione [3]; plasma, 2 hr): 9.8 µM
% Decrease in glutathione (glutathione [3]; plasma, 4 hr): 68%
Glutathione level (glutathione [3]; plasma, 4 hr): 7.1 µM
% Decrease in glutathione (glutathione [3]; plasma, 8 hr): 78%
Glutathione level (glutathione [3]; plasma, 8 hr): 5.1 µM
% Decrease in glutathione (glutathione [3]; plasma, 12 hr): 77%
Glutathione level (glutathione [3]; plasma, 12 hr): 5.5 µM
